Reference: patent US12422660B2, “Microscope for imaging samples within wells of multi-well plates hold by stage and beam homogenizer for homogenizing beam” (QUIVER HOLDINGS INC., priority 2020, dated 2025)
Entries after “also recorded” stand apart in the source; their conditions may differ.

How the values were obtained:
[1] = tested on: E18 rat hippocampal neurons; assay: Optopatch pharmacology and high-throughput validation on 96-well Firefly; assay type: cell-based; details: for firing rate: 1 μM, 96-well plate, alternating columns vs vehicle; for drug-induced change in neuronal spiking behavior: neurons cultured 14 days, vehicle normalized to 1
Protocol: Concentration response curves are readily measured with the Optopatch platform (FIG. 31). All compounds show large effect sizes and good repeatability on two independent plates. Each symbol represents>100 cells in one well. All the data shown were measured in a single day.
The system is also approaching readiness for high-throughput drug screening. To test system uniformity and repeatability, ML-213 is added to alternating columns in a 96-well plate (FIG. 32-FIG. 37). The change in spike rate during the ramp is readily visible in each well and is uniform across the plate (FIG. 34-35). Using one parameter, number of spikes during the ramp, the Z′ of 0.31 indicates a failed call in 1 of 73,000 wells, sufficient for screening tens of thousands of compounds for phenotypic screens in neurons. There was a small drift in time as wells were read out serially at room temperature (FIG. 36). Recent improvements in automation control software have reduced the scan time per FOV from 30 seconds to 10 seconds, which will reduce scan time artifacts. Furthermore, the microscope will have a 5× increased imaging area, reducing the number of FOVs per well to 1 and further increasing screening speed.
FIGS. 30 & 31 show pharmacology e.g., with E18 rat hippocampal neurons cultured 14 days.
FIG. 30 is radar plots showing the drug-induced change in neuronal spiking behavior along many dimensions, tabulated at right. For each parameter, the vehicle is normalized to 1 (green); drug effects in orange.
FIG. 32-FIG. 37 show high-throughput validation for screening with E18 rat hippocampal neurons cultured for 14 days.
The blue light stimulus is shown below.

[2] = tested on: hiPSC-derived motor neurons; assay: Optopatch intrinsic excitability and pharmacological response, before and after compound addition; assay type: cell-based, human; details: 1 μM, before vs after addition, blue light stimulus
Source text: Firefly image with overlay (colored regions) of hiPSC-derived motor neurons are identified by automated analysis.
Example voltage recordings from selected cells, and the blue stimulus used to evoke firing: steps, pulse trains, and ramps are shown. […]
FIG. 21 is a raster plot where each point is an identified action potential and each row is a neuron from a single FOV.
Analysis overview: FIGS. 19-26 show the automated analysis workflow for measurements of intrinsic excitability and pharmacological response in hiPSC-derived motor neurons. Neurons are interrogated with a stimulus protocol (blue) designed to probe a broad range of spiking behaviors. All pixels capturing fluorescence from one neuron co-vary in time following that cell's unique firing pattern (FIG. 20). The temporal covariance is used to generate a weight mask for each cell (colored regions in FIG. 19); masked pixels are averaged for each frame in the movie to calculate the voltage traces. Each FOV was recorded twice, before and after addition of potassium channel opener ML213. […] From the fluorescence-time traces, each action potential in the dataset is identified (FIG. 21), and firing rate (FIG. 22), spike shape parameters (FIG. 23) and relative timings (FIG. 24 & FIG. 25) are measured as a function of stimulus. […]

[3] = tested on: iPSC-derived excitatory cortical neurons (NGN2) with LOF mutation (knockout/KO); assay: Optopatch multi-dimensional analysis of disease phenotype reversal and side effects; assay type: cell-based, human; details: for cell behavior projected onto phenotype/side effect space: KO cells, 8 concentrations from 0.28 to 600 μM, increasing concentration; for reversal of functional phenotype (WT vs KO), radar plot: KO neurons, 30 days in culture
Source text: In compound screening, multidimensional data may be reduced to a few parameters that can be used to rank and select compounds to advance. In disease modeling, for example, one uses hiPSC-derived neurons from patients and healthy controls, and screens for compounds that induce the disease cells to behave like healthy cells. The dimensionality reduction is described in FIG. 27-FIG. 29.
FIG. 27-FIG. 29 show multi-dimensional analysis with iPSC-derived excitatory cortical neurons (NGN2), 30 days in culture.
FIG. 27 is Radar plot showing a select subset of parameters normalized to values for wildtype (WT) neurons. […] The difference between WT and KO traces is the functional phenotype.
FIG. 28 is a diagram illustrating phenotype reversal and “side effects.” In the ˜300-dimensional space of recorded parameters, only two of which are shown, WT wells are clustered and KO wells are clustered. The vector between these populations represents the phenotype (red). Drug effects (blue) are deconstructed into components along (phenotype reversal) and orthogonal to (side effects) the phenotype vector. An ideal drug would undo the effects of the mutation and move the well from the KO cloud to the WT cloud.
FIG. 29 is a plot showing many wells projected onto the phenotype/side effect space. WT and KO wells are well separated along the phenotype direction. Application of the two compounds (8 concentrations from 0.28 to 600 μM) from FIG. 27 have increasing effects on KO cell behavior as the concentration increases. […] The connected drug points are in order of increasing concentration, and the two lines are experimental replicates on two consecutive weeks of experiment.

Structure (SMILES)	firing rate [1]	firing rate ([1]; listed as ML-213)	drug-induced change in neuronal spiking behavior [1]	neuronal excitability / firing [2]	cell behavior projected onto phenotype/side effect space [3]	reversal of functional phenotype (WT vs KO), radar plot [3]
Cc1cc(C)c(NC(=O)C2CC3CCC2C3)c(C)c1 (stereo not drawn) [ML213]	dramatically reduces firing rate in all wells tested	reduces firing	drive behavior in opposite directions	suppresses firing; also recorded: clear reduction in neuronal excitability	–	–
Nc1ccncc1 [4-AP]	–	–	–	–	moves cell behavior toward and beyond WT behavior	substantially reversed the phenotype
O=C1c2ccccc2C(Cc2ccncc2)(Cc2ccncc2)c2ccccc21 [XE-991]	–	–	drive behavior in opposite directions	–	–	–
Nc1nnc(-c2cccc(Cl)c2Cl)c(N)n1 [lamotrigine]	–	–	–	–	moves behavior away from both WT and KO	perturbed behavior but did not reverse the phenotype
